Tests used:
[1] = target: Muscarinic acetylcholine receptor M3 (Cavia porcellus) (UniProt Q8VH26); test: Maximum contractile response relative to carbachol (E max) in guinea pig ileum as muscarinic acetylcholine receptor M3 agonistic/antagonistic activity; assay type: functional, tissue-based
[2] = target: Muscarinic acetylcholine receptor M3 (Cavia porcellus) (UniProt Q8VH26); test: Relative efficacies determined with oxotremorine as the reference in guinea pig ileum, as a measure of muscarinic acetylcholine receptor M3 agonistic activity; assay type: functional, tissue-based
[3] = target: T1, Muscarinic acetylcholine receptor M3 (Cavia porcellus, UniProt Q8VH26); test: Dissociation constant for complex with muscarinic acetylcholine receptor M3 of guinea pig ileum; assay type: tissue-based
[4] = target: Muscarinic acetylcholine receptor; test: Displacement of [3H]3-quinuclidinyl benzilate ([3H]-QNB) from muscarinic acetylcholine receptor of rat cerebral cortex; assay type: tissue-based
[5] = target: T1, Muscarinic acetylcholine receptor M3; test: Muscarinic acetylcholine receptor M3 agonistic/antagonistic activity in guinea pig ileum; assay type: functional, tissue-based

Muscarinic acetylcholine receptor M3 (Cavia porcellus), sequence (Q8VH26 1-587): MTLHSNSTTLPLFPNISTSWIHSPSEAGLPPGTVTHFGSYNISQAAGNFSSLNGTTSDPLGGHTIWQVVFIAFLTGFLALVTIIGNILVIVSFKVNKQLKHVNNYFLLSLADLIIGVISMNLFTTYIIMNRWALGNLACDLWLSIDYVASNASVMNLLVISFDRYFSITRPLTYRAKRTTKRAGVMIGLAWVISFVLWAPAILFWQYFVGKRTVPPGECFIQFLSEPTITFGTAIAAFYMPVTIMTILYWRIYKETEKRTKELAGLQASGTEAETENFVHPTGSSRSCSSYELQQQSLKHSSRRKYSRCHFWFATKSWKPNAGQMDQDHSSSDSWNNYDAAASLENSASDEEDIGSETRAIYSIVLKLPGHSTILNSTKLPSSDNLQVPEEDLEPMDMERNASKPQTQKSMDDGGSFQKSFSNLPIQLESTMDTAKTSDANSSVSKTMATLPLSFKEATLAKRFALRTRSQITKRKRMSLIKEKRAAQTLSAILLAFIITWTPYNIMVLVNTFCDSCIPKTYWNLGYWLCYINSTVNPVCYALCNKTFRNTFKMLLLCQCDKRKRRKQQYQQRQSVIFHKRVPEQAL
T1 sequence (Q8VH26 whole entry): as the sequence (Q8VH26 1-587) above

SMILES	Emax [1]	Efficacy [2]	Kd [3]	Ki [4]	EC50 [5]
CC(C#CCN1CCCC1)N1CCCC1=O (centres undefined)	0	0	0.091 µM	0.059 µM	
CN1CCN(CC#CCN2CCCC2)C1=O	1	0.21	2.9 µM	1.6 µM	0.1 µM
O=C1CNC(=O)N1CC#CCN1CCCC1	0.37	0.12	100 µM	17.2 µM	46.4 µM
CC(C#CCN1CCCC1)N1CCNC1=O (centres undefined)	0	0	0.48 µM	0.64 µM	
CC(=O)N1CCN(CC#CCN2CCCC2)C1=O	0	0		27.4 µM	> 300 µM
CC(C#CCN1CCCC1)N(C)C(N)=O (centres undefined)	0	0	0.71 µM	0.42 µM	
O=C1NCCN1CC#CCN1CCCC1	1	0.49	30.3 µM	6.5 µM	2.67 µM
CC(=O)N(C)C(C)C#CCN1CCCC1 (centres undefined)	0.83	0.013	0.24 µM		0.19 µM
CC1CCN(CC#CCN2CCCC2)C1=O (centres undefined)			11.5 µM		0.5 µM
O=CN1CCN(CC#CCN2CCCC2)C1=O	1	0.14	20.9 µM	26.4 µM	8.6 µM
C[N+](C)(C)CCOC(N)=O	1	5.71			
O=C1CCCN1CC#CCN1CCCC1 [OXOTREMORINE]	1	1	1.2 µM	0.23 µM	0.05 µM
CNC(=O)N(C)CC#CCN1CCCC1	1	0.53	26.4 µM	15.8 µM	2.16 µM
CNC(=O)N(C)C(C)C#CCN1CCCC1 (centres undefined)	1	0.18	7.5 µM	4.2 µM	2.11 µM
CN(CC#CCN1CCCC1)C(N)=O	0.57	0.08	49 µM	10.7 µM	44.9 µM
